Earlier results in paper PMC12694011, “Update and ADMET Profile of the Latin American Natural Product Database: LANaPDB” (Molecular Informatics, 2025).

System: hERG channel
Conditions: not given

| SMILES | hERG channel blocking (in words) |
| --- | --- |
| Fc1ccc(C(c2ccc(F)cc2)N2CCN(C/C=C/c3ccccc3)CC2)cc1 [flunarizine] | potent hERG channel blockers |
| OCCN1CCN(CCCN2c3ccccc3Sc3ccc(Cl)cc32)CC1 [perphenazine] | potent hERG channel blockers |
| O=c1[nH]c2ccccc2n1C1CCN(CCCC(c2ccc(F)cc2)c2ccc(F)cc2)CC1 [pimozide] | potent hERG channel blockers |

System: not given
Set-up: method as in PMID 19947605
Conditions: amphoteric drugs

| SMILES | paracellular transport (in words) |
| --- | --- |
| N[C@@H]1[C@H]2CN(c3nc4c(cc3F)c(=O)c(C(=O)O)cn4-c3ccc(F)cc3F)C[C@@H]12 [trovafloxacin] | undergo extensive paracellular transport |
| Nc1nc(O)c2ncn(COC(CO)CO)c2n1 [ganciclovir] | undergo extensive paracellular transport |
| CN1C(C(=O)Nc2ccccn2)=C(O)c2ccccc2S1(=O)=O [piroxicam] | undergo extensive paracellular transport |
| CC1(C)S[C@@H]2[C@H](/N=C/N3CCCCCC3)C(=O)N2[C@H]1C(=O)O [amdinocillin] | undergo extensive paracellular transport |
